Measured values: ChEMBL document CHEMBL1201862, “PubChem BioAssay data set” (2004)
Calls of active or inactive are those of the source.

Assays:
Major prion protein = Major prion protein (Homo sapiens, UniProt P04156); assay type: functional, cell-based
[1] = Counterscreen for inhibitors of Trypanosoma brucei methionyl tRNA synthetase (MetRS): Luminescence-based cell-based high throughput dose response assay to identify compounds that are cytotoxic to Jurkat human T lymphocyte cells.; assay type: functional
[2] = biological target: T1, Methionyl-tRNA synthetase, putative (Trypanosoma brucei brucei, UniProt Q38C91); assay type: functional, Trypanosoma brucei brucei strain 927/4 GUTat10.1
T1 sequence (Q38C91 whole entry): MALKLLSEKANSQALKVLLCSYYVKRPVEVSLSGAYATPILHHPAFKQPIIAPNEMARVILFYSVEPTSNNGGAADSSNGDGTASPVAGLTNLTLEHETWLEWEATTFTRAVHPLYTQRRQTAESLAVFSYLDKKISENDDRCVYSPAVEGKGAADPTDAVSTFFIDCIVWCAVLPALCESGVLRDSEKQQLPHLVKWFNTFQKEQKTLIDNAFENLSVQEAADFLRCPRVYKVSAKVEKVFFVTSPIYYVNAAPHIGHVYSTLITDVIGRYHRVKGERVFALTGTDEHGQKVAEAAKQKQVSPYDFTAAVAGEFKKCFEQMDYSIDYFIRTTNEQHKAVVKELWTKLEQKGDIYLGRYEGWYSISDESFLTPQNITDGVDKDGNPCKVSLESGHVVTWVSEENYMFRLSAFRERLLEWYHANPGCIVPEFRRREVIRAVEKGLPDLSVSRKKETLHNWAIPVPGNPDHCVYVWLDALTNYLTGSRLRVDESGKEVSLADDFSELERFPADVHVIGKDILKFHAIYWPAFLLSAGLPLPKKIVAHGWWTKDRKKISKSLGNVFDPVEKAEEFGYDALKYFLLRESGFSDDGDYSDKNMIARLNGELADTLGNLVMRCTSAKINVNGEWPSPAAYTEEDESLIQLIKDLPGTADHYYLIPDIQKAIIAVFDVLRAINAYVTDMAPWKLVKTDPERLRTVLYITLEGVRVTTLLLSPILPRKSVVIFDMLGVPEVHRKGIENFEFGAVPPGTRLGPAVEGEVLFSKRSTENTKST

[3] = biological target: T1, Methionyl-tRNA synthetase, putative; assay type: functional, Trypanosoma brucei brucei strain 927/4 GUTat10.1; remark: listed apart in the source
[4] = blockers of HIV-1 ZM109 envelope-driven cell-cell fusion – HeLa effector, CEM target cells, luciferase, cherry-pick, dose response (AID 652058); assay type: functional, cell-based;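 note: luciferase signal from HIV-1 Env mediated cell-cell fusion of effector and target cells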
[5] = off-target signal loss in HeLa-CEM21 co-culture – HeLa F-luc CTL cells, cherry-picked, counter-screen for HIV-1 Env fusion inhibitor project, dose response (AID 652040); assay type: functional, cell-based;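 note: potency for signal decrease marking cytotoxic or nonspecific inhibition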
[6] = viability loss in CEM21 cells – cell-based, CellTiter-Glo luminescence, cherry-picked, cytotoxicity control for viral fusion inhibitor project, dose response (AID 652042); assay type: functional;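 note: potency for signal decrease meaning cytotoxicity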
[7] = HIV-1 AD8 envelope cell-cell fusion blockers – cherry-pick, dose response (AID 652062); assay type: functional, cell-based;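 note: luciferase signal from cell-cell fusion driven by HIV-1 clade B AD8 Env; potency is for inhibitors of fusion seen as a drop in luminescence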
[8] = blockers of HIV-1 envelope-mediated cell-cell fusion – cherry-pick, dose response (AID 652057); assay type: functional, cell-based
INS1 = experiment: INS-1E survival protection against cytokine death – cell-based, luminescence, retest, dose response (AID 449756); assay type: functional; conditions: Rattus norvegicus;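 note: cell death triggered by IL-1 beta plus TNF-alpha plus IFN-gamma mixture; protective hits raise ATP signal compared with cytokine alone wells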
Cytochrome P450 2C9 = Cytochrome P450 2C9 (Homo sapiens, UniProt P11712)
Sequence of Cytochrome P450 2C9 (P11712 whole entry): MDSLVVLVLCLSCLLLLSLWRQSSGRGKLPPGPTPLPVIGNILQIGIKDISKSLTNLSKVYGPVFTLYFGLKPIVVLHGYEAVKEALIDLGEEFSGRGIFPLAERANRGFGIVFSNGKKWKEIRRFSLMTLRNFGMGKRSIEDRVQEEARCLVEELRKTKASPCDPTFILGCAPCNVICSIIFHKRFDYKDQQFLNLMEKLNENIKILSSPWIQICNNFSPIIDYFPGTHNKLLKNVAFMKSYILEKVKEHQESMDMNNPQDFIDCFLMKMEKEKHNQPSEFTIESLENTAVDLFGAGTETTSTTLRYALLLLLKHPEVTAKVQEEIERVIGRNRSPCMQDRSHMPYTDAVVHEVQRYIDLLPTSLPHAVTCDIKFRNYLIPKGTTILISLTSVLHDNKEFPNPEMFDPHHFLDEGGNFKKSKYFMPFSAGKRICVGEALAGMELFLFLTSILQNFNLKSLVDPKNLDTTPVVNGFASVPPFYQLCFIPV

[9] = biological target: T2, Histone-lysine N-methyltransferase NSD2 (Homo sapiens, UniProt O96028); assay type: biochemical
T2 sequence (O96028 whole entry): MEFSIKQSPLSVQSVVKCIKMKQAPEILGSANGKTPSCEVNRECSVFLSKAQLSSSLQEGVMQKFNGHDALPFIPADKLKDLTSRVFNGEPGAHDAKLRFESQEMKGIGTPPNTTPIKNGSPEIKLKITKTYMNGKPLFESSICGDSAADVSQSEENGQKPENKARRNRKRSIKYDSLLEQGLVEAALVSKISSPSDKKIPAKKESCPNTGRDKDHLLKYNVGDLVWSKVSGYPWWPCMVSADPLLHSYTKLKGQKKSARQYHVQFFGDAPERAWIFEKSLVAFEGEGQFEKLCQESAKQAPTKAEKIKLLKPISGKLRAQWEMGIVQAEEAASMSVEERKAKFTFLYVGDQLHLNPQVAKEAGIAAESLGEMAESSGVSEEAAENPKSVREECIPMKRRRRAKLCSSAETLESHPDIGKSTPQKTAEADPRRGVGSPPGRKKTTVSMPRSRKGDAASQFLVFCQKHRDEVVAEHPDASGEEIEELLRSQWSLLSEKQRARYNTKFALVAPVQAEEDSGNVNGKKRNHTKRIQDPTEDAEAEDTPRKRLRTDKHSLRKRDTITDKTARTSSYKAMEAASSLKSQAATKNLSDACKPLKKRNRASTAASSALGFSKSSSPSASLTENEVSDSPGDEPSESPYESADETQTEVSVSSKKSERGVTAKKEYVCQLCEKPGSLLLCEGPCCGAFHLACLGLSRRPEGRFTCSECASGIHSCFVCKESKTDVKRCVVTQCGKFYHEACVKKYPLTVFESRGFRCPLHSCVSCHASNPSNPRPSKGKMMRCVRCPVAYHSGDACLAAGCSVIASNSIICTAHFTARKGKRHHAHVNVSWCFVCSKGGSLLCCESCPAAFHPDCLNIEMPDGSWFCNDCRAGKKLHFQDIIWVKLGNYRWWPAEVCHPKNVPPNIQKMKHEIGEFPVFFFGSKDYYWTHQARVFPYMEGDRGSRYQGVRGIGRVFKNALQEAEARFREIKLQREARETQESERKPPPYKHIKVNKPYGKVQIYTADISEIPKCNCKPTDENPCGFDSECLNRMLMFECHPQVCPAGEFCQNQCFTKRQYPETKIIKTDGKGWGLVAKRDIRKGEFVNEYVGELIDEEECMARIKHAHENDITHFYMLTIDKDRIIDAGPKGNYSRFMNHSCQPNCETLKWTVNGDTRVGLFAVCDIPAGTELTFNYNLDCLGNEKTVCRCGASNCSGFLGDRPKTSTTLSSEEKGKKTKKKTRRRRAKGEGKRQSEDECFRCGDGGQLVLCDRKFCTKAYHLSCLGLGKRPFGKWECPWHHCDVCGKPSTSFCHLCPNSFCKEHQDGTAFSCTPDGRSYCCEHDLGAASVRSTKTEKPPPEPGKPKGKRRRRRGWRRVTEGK

Protein RecA = biological target: T3, Protein RecA (Mycobacterium tuberculosis, UniProt P9WHJ3); experiment: Fluorescence Cell-Free Homogeneous Dose Retest to Identify Inhibitors of RecA-Intein Splicing Activity. [Related pubchem assays (depositor defined):AID2097, AID2223, AID489010, AID492950]; assay type: functional
T3 sequence (P9WHJ3 whole entry): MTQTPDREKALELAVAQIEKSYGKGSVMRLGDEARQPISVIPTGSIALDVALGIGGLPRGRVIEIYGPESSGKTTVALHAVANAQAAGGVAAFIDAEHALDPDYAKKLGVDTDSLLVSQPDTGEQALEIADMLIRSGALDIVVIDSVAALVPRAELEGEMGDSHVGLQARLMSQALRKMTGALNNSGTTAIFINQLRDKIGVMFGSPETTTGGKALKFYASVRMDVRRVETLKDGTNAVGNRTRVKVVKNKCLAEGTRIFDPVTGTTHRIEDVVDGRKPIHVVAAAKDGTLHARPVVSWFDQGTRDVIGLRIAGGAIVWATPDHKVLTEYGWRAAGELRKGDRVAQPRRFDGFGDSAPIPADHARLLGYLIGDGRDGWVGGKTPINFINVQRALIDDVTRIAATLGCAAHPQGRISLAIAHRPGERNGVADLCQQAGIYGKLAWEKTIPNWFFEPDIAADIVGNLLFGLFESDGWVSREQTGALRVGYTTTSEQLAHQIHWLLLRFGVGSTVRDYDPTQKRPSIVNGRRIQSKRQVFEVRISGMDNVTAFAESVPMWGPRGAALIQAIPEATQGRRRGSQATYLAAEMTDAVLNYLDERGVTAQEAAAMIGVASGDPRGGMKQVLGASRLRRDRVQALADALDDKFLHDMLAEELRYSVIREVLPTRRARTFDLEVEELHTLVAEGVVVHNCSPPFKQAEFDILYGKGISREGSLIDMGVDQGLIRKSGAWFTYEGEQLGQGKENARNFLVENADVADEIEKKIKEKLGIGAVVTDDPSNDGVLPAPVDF

[10] = biological target: T4, Heat shock factor protein 1 (Mus musculus, UniProt P38532); experiment: enhancement of HSF1-driven luciferase signal – cell-based, NIH3T3, luminescence, dose retest, confirmation (AID 435004); assay type: functional;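 note: stress induced by proteasome inhibitor MG132 added 30 min after compound; luciferase reporter driven by HSF1 response element in NIH3T3 cells; actives raise luminescence as potentiators of the MG132 stress response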
T4 sequence (P38532 whole entry): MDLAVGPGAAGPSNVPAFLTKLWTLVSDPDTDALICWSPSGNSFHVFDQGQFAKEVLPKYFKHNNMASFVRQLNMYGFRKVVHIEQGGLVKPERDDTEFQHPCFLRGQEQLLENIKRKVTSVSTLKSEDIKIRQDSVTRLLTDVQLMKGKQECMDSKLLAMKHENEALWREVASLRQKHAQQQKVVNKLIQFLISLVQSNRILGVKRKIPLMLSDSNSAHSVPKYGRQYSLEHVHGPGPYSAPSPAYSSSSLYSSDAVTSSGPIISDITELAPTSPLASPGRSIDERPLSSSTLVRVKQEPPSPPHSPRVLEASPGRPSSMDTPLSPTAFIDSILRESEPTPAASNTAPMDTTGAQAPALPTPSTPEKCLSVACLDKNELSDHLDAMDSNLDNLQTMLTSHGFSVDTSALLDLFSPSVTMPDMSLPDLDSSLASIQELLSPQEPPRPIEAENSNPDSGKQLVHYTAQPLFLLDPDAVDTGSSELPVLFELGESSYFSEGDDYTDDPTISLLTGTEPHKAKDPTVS

[11] = biological target: T5, Oxysterols receptor LXR-beta (Homo sapiens, UniProt P55055); assay type: functional, cell-based;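 note: agonist activity at LXR measured by a cell-based luminescence readout across a dose range, run as a counterscreen for daf-12 agonists; HEK293 cells with Gal4-LXR fusion and GAL4-driven luciferase reporter; potency for activation of Gal4-LXR reporter so compounds are agonists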
T5 sequence (P55055 whole entry): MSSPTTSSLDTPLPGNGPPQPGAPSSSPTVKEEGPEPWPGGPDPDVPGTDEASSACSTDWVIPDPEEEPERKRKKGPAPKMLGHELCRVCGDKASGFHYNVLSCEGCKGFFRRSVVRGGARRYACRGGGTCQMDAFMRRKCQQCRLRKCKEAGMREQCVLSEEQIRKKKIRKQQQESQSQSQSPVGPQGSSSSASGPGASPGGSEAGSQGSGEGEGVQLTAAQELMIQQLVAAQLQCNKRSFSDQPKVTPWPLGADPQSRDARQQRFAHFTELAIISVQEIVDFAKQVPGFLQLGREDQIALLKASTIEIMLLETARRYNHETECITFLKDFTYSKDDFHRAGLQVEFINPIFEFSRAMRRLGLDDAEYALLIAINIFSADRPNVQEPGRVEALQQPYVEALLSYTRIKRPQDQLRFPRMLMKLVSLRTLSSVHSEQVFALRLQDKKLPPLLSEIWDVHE

[12] = viability loss in MITF-independent A375 cells – cell-based, CellTiter-Glo luminescence, dry powder, set 2, counter-screen for MITF inhibitor project, dose response (AID 624489); assay type: functional; conditions: A-375;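 note: actives are compounds lowering A375 viability meaning general cytotoxicity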
[13] = cytotoxicity in MITF-independent A375 cells – cell-based, CellTiter-Glo luminescence, dry powder, set 4, counter-screen for MITF inhibitor project, dose response (AID 624364); assay type: functional; conditions: A-375;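 note: A375 melanoma cells are MITF independent so this is a counter screen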

In the case of `CC1(C)Cc2ccccc2-c2[nH]c(=S)[nH]c(=O)c21`, the IC50 (Major prion protein) is reported as 4.55 µM (active).
For `CC1(C)Cc2ccccc2-c2nc(S)nc(O)c21`, the IC50 (cells) was > 138 µM (inactive).
In the case of `Cc1[nH]c2ccccc2c1C(=O)C(=O)NCCc1ccc(S(N)(=O)=O)cc1`, the IC50 [1] is reported as 83.3 µM (inactive), the IC50 [2] is reported as 14.8 µM (inactive) and the IC50 [3] is reported as 6.63 µM (active).
In the case of `CCOC(=O)CSc1nc(-c2ccccc2)nc2ccccc12`, the IC50 (cells) is reported as > 138 µM (inactive) and the IC50 (Major prion protein) is reported as 1.73 µM (active).
For `CCNS(=O)(=O)c1ccc(CCC(=O)Nc2cc(Cl)ccc2Oc2ccccc2)cc1`, the AC50 [4] was 2.17 µM (active), the AC50 [5] was 12 µM (active) and the AC50 [6] was 40.5 µM (active). The AC50 [7] was 11.6 µM (active) and the AC50 [8] was 5.54 µM (active).
With `CCn1c(-c2ccc(C)cc2)nn(CC(=O)NCCc2ccccc2)c1=S` the AC50 [4] was 4.85 µM (active), the AC50 [5] was 7.04 µM (active) and the AC50 [6] was 51.1 µM (active). The AC50 [7] was 6.95 µM (active), the AC50 (INS1) was 5.9 µM (active) and the AC50 [8] was 8.88 µM (active).
For `Clc1ccccc1-c1ccc2ncnc(NCc3cccnc3)c2c1`, the AC50 (Cytochrome P450 2C9) was 0.794 µM (inconclusive), the IC50 [1] was 83.3 µM (inactive) and the IC50 [2] was 14.1 µM (inactive). The IC50 [3] was 17.1 µM (inactive).
With `CC(=O)c1ccc(NC(=O)c2ccc(-n3cncn3)c([N+](=O)[O-])c2)cc1` the IC50 [1] was 83.3 µM (inactive), the IC50 [2] was 7.16 µM (active) and the IC50 [3] was 4.12 µM (active).
For `OCCN=C(S)Nc1ccc2nsnc2c1`, the AC50 [9] was 10.5 µM (active) and the EC50 (Protein RecA) was 26 µM (active).
For `Cc1ccc2oc(-c3cccc(N)c3)nc2c1`, the EC50 [10] was > 260 µM (inconclusive) and the EC50 [11] was > 67.6 µM (inactive).
In the case of `CCOC(=O)CSc1nc(COc2ccccc2)nc2ccccc12`, the IC50 (cells) is reported as > 138 µM (inactive) and the IC50 (Major prion protein) is reported as 8.25 µM (active).
With `CCN(CC)CCCNC1=C(N(C)C(C)=O)C(=O)c2ccccc2C1=O` the AC50 [12] was 2.91 µM (active) and the AC50 [13] was 5.33 µM (active).
With `Cc1ccc(/C=N/NC(=O)c2ccoc2C)s1` the EC50 [11] was > 67.6 µM (inactive).
In the case of `CC(=O)NC1=C(c2ccc(Oc3ccccc3)cc2)C(=O)c2ccccc2C1=O`, the AC50 [12] is reported as 31.2 µM (active) and the AC50 [13] is reported as 59 µM (active).
